# Source: BindingDB's records for patent US11707539 (Tufts College, 2023)
# Values joined by “and” are separate entries in the source; they are usually repeats but may differ in a detail not shown here. Identical values can stand only once. Where a SMILES comes first, the peptide text is derived from it.
# Legend:
# Test in all cases: In Vitro Assay Dipeptidyl Peptidase IV. Fibroblast Activation Protein and Prolyl Oligopeptidase
# Prolyl endopeptidase FAP = target: T1, Prolyl endopeptidase FAP (Homo sapiens, UniProt Q12884)
# T1 sequence (Q12884 whole entry): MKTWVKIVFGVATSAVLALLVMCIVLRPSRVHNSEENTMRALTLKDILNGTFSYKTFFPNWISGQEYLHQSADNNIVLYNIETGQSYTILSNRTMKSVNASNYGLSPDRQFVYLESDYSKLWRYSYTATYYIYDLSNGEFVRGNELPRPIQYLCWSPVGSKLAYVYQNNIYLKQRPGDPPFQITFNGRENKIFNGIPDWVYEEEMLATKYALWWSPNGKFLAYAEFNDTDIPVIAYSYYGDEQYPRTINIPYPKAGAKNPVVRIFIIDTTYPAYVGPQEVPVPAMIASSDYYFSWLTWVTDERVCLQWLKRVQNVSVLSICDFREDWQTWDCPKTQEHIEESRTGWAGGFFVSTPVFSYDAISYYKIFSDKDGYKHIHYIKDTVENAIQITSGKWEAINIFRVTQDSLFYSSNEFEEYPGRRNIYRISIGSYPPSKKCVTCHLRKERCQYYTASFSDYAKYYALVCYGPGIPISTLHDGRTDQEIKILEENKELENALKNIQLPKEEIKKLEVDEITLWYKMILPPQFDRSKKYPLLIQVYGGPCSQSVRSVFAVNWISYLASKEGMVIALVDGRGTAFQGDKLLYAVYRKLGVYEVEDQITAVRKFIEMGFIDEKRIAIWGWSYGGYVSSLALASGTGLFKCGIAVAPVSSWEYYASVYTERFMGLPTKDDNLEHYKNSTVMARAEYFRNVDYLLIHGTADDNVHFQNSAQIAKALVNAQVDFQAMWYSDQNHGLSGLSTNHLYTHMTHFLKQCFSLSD
# Method: (§1) The purpose of this assay is to determine the IC50 of various inhibitors against recombinant human dipeptidyl peptidase IV (DPPIV), fibroblast activation protein (FAP) or prolyl oligopeptidase (PREP). The assays are conducted in the following steps:1 Dissolve the compound in DMSO to a final concentration of […]. […] Serial dilute (1:10) the 1 mM compound stocks prepared previously into the appropriate assay buffer (FAP: 50 mM Tris, 140 mM NaCl, pH 7.5/PREP: 25 mM Tris, 0.25 M NaCl, pH 7.5/DPPIV: 25 mM Tris, pH 8.0) to one row of a 96-well plate. 3. […] 4. Dilute the enzymes into their appropriate assay buffers. The final enzyme concentrations should be 0.1, 1.2, and 0.6 nM for DPPIV, FAP and PREP respectively. Add 180 μL to each well needed in columns 2-10. Column 1 (A,B,C) should be prepared with 200 ul of appropriate assay buffer as control. Column 1 (D,E,F,G,H) should be prepared with 20 ul of appropriate assay buffer and 180 ul enzyme as no inhibitor control. 5. Add 20 μL of the compound of interest from the dilution plate prepared in step 2 to columns 2-10 of the assay plate where appropriate. Each sample should be tested in triplicate. Allow this to incubate for 10 minutes at room temperature, shaking the plate for the first two minutes. 6. Add 10 μL of 20× substrate prepared in step 3 to each well and allow this to incubate for 15 minutes at room temperature, shaking the plate for the first two minutes. 7. Read the fluorescence at λex: 380, λem: 460.
# Prolyl endopeptidase = target: T2, Prolyl endopeptidase (Homo sapiens, UniProt P48147)
# T2 sequence (P48147 whole entry): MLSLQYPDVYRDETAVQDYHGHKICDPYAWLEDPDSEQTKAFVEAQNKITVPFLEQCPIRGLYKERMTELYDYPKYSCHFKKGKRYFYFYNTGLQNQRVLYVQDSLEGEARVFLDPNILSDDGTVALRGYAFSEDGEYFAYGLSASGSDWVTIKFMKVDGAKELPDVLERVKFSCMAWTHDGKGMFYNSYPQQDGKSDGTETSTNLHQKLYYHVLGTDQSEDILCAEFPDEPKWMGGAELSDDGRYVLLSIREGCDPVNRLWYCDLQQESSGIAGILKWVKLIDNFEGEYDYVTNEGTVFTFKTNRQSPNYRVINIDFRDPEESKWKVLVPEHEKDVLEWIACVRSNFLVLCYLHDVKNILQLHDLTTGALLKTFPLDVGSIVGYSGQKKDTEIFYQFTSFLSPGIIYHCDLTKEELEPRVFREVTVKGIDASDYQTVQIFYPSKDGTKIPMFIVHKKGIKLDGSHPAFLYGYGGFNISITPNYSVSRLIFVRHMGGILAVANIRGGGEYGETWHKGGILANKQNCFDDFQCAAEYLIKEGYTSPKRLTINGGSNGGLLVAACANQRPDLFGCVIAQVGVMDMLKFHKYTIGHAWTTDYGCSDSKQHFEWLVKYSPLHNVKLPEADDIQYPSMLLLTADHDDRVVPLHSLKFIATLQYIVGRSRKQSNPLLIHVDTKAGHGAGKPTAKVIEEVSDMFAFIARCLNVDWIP
# Method: as §1
# Dipeptidyl peptidase 4 = Dipeptidyl peptidase 4 (Homo sapiens, UniProt P27487)
# Method: as §1
# Dipeptidyl peptidase 4, sequence (P27487 whole entry): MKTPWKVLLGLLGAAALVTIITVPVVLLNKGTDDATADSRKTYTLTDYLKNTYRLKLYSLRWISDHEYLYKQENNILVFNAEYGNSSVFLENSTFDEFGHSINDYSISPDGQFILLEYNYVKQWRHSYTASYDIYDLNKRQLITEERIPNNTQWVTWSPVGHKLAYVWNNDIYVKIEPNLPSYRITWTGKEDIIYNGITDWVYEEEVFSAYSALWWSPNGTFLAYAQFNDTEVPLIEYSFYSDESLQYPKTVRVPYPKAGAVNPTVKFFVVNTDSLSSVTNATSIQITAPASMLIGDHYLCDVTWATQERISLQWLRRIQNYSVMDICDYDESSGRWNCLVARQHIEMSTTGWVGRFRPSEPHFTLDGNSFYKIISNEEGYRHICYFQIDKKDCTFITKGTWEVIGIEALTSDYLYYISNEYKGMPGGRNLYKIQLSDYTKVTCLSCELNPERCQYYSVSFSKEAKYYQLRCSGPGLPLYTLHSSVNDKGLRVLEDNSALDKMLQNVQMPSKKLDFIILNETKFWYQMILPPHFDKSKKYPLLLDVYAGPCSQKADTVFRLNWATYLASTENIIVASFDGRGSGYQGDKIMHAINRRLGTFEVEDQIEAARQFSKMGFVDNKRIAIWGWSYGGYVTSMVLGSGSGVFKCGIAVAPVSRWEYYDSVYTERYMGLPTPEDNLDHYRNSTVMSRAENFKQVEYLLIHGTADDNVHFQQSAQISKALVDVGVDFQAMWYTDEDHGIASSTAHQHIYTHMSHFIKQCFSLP
compound,measurement,setting,value
"N[C@@H](CCCCNC(=O)CCCNC(=O)CN1CCN(CC(=O)O)CCN(CC(=O)O)CCN(CC(=O)O)CC1)C(=O)N1CCC[C@H]1B(O)O [US11707539, Compound 6551]",IC50,Prolyl endopeptidase FAP,2.6 nM and 2 nM
"CC(C)[C@H](NC(=O)CNC(=O)CNC(=O)CN1CCN(CC(=O)O)CCN(CC(=O)O)CCN(CC(=O)O)CC1)C(=O)N[C@H](C)C(=O)N1CCC[C@H]1B(O)O [US11707539, Compound 6522] (HELM PEPTIDE1{[O=C(O)CN1CCN(CC(=O)O)CCN(CC(=O)[*:2])CCN(CC(=O)O)CC1].G.G.V.[dA].[OB(O)[C@@H]1CCCN1[*:1]]}$$$$V2.0)",IC50,Prolyl endopeptidase FAP,3.5 nM and 12 nM
same,IC50,Prolyl endopeptidase,13000 nM
same,IC50,Dipeptidyl peptidase 4,> 100000 nM
